Source: patent US10040798B2, “Pyrrolopyridazine inhibitors of IRAK4 activity” (MERCK SHARP & DOHME CORP., priority 2015, dated 2018)
pIC50: −log10 of the molar value. Where a name gives a salt, the structure may show the parent alone.

Biological target: IRAK4 (Homo sapiens (Human), UniProt Q9NWZ3)
Test: IRAK4 Kinase Assay (IMAP fluorescence polarization)
Type: biochemical
Conditions: 0.5 nM GST tagged IRAK4, 100 μM ATP, 30 minutes at 25° C., IMAP FP
Experimental: The kinase activity of IRAK4 is determined by its ability to catalyze the phosphorylation of a fluorescent polypeptide substrate. The extent of phosphorylation is measured using the IMAP technology (Molecular Devices) where the phosphorylated fluorescent substrate binds to the large M (III)-based nanoparticles which reduces the rotational speed of the substrate and thus increases its fluorescent polarization (FP).
20 μL reaction mixture contains 10 mM TriHCl, pH 7.2, 0.5 nM GST tagged IRAK4 (SignalChem), 100 nM fluorescent peptide substrate (RP7030, Molecular Devices), 100 μM ATP, 1 mM DDT, 1 mM MgCl2, and 0.01% Tween 20. The reaction is initiated by the addition of ATP. After incubation for 30 minutes at 25° C., 60 μL of Progressive IMAP Reagent (Molecular Devices) is added to stop the reaction. Change in RP7030's FP is determined by a FP reader (Analyst HT, LJL BioSystems).

Sequence of IRAK4 (Q9NWZ3 whole entry): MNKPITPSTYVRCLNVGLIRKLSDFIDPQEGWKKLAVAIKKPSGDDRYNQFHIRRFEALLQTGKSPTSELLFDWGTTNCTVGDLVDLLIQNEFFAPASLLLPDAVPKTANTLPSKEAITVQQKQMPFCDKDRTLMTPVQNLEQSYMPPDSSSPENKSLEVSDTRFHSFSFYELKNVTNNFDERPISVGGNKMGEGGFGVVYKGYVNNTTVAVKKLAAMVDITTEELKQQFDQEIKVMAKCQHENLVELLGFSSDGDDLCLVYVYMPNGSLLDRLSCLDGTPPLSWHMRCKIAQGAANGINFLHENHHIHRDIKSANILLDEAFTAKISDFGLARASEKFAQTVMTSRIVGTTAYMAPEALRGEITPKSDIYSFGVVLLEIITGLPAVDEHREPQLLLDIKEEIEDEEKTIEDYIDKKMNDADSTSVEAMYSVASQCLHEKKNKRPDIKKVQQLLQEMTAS

SMILES	pIC50
O=C(Nc1ccsc1C(F)(F)F)c1ccc2ccc(N3C[C@H]4CC[C@@H]3CN4)nn12 (single isomer, unassigned) [Example 114, 2-[(1S,4S)- or (1R,4R)-2,5-diazabicyclo[2.2.2]oct-2-yl]-N-[2-(trifluoromethyl)thiophen-3-yl]pyrrolo[1,2-b]pyridazine-7-carboxamide trifluoroacetate]	5.75
Cn1cc(NC(=O)c2ccc3ccc(N4C[C@H]5CNC[C@@H]4C5)nn23)c(C(F)F)n1 (single isomer, unassigned) [Example 126, 2-[(1S,5R)- or (1R,5S)-3,6-diazabicyclo[3.2.1]oct-6-yl]-N-[3-(difluoromethyl)-1-methyl-1H-pyrazol-4-yl]pyrrolo[1,2-b]pyridazine-7-carboxamide]	7.85
Cn1cc(NC(=O)c2ccc3ccc(N[C@@H]4CCCC[C@@H]4O)nn23)c(C(F)(F)F)n1 [Example 5, 2-{[(1R,2S)-2-hydroxycyclo-hexyl]amino}-N-[1-methyl-3-(trifluoromethyl)-1H-pyrazol-4-yl]pyrrolo[1,2-b]pyridazine-7-carboxamide trifluoroacetate]	6.91
Cn1cc(NC(=O)c2ccc3ccc(N4CC5CCC4CN5)nn23)c(C(F)(F)F)n1 (stereo not shown) [Example 8, 2-(2,5-diazabicyclo[2.2.2]oct-2-yl)-N-[1-methyl-3-(trifluoromethyl)-1H-pyrazol-4-yl]pyrrolo[1,2-b]pyridazine-7-carboxamide]	7.72
Cn1cc(NC(=O)c2ccc3ccc(N4CCCNCC4)nn23)c(C(F)(F)F)n1 [Example 10, 2-(1,4-diazepan-1-yl)-N-[1-methyl-3-(trifluoromethyl)-1H-pyrazol-4-yl]pyrrolo[1,2-b]pyridazine-7-carboxamide trifluoroacetate]	7.48
Cn1cc(NC(=O)c2ccc3ccc(N4CC5CCC4CN5)nn23)c(C(F)(F)F)n1 (stereo not shown) [Example 11, 2-(2,5-diazabicyclo[2.2.2]oct-2-yl)-N-[1-methyl-3-(trifluoromethyl)-1H-pyrazol-4-yl]pyrrolo[1,2-b]pyridazine-7-carboxamide]	7.57
Cn1cc(NC(=O)c2ccc3ccc(N4CCC[C@@H](N)C4)nn23)c(C(F)F)n1 [Example 13, 2-[(3R)-3-aminopiperidin-1-yl]-N-[3-(difluoromethyl)-1-methyl-1H-pyrazol-4-yl]pyrrolo[1,2-b]pyridazine-7-carboxamide trifluoroacetate]	9.30
Cn1cc(NC(=O)c2ccc3ccc(N4CC5CCC4CN5)nn23)c(C(F)F)n1 (stereo not shown) [Example 17, 2-(2,5-diazabicyclo[2.2.2]oct-2-yl)-N-[3-(difluoromethyl)-1-methyl-1H-pyrazol-4-yl]pyrrolo[1,2-b]pyridazine-7-carboxamide trifluoroacetate]	8.40
Cn1cc(NC(=O)c2ccc3ccc(N4CCNCC5(CC5)C4)nn23)c(C(F)F)n1 [Example 18, 2-(5,8-diazaspiro[2.6]non-5-yl)-N-[3-(difluoromethyl)-1-methyl-1H-pyrazol-4-yl]pyrrolo[1,2-b]pyridazine-7-carboxamide trifluoroacetate]	8.70
Cn1cc(NC(=O)c2ccc3ccc(N[C@@H]4CCCC[C@@H]4O)nn23)c(C(F)F)n1 [Example 20, N-[3-(difluoromethyl)-1-methyl-1H-pyrazol-4-yl]-2-{[(1R,2S)-2-hydroxycyclohexyl]amino}pyrrolo[1,2-b]pyridazine-7-carboxamide trifluoroacetate]	7.96
Cn1cc(NC(=O)c2ccc3ccc(N4CCCNCC4)nn23)c(Br)n1 [Example 21, N-(3-bromo-1-methyl-1H-pyrazol-4-yl)-2-(1,4-diazepan-1-yl)pyrrolo[1,2-b]pyridazine-7-carboxamide trifluoroacetate]	7.49
Cn1cc(NC(=O)c2ccc3ccc(N4CCCNCC4)nn23)c(Cl)n1 [Example 23, N-(3-chloro-1-methyl-1H-pyrazol-4-yl)-2-(1,4-diazepan-1-yl)pyrrolo[1,2-b]pyridazine-7-carboxamide trifluoroacetate]	7.70
Cn1cc(NC(=O)c2ccc3ccc(NC4CCCCNC4)nn23)c(C(F)F)n1 (stereo not shown) [Example 24, 2-(azepan-3-ylamino)-N-[3-(difluoromethyl)-1-methyl-1H-pyrazol-4-yl]pyrrolo[1,2-b]pyridazine-7-carboxamide trifluoroacetate]	8.70
Cn1cc(NC(=O)c2ccc3ccc(N4CC5CCC4CN5)nn23)c(Br)n1 (stereo not shown) [Example 27, N-(3-bromo-1-methyl-1H-pyrazol-4-yl)-2-(2,5-diazabicyclo[2.2.2]oct-2-yl)pyrrolo[1,2-b]pyridazine-7-carboxamide trifluoroacetate]	7.62

More lines, in order of rising pIC50, values ahead:

pIC50	SMILES
6.72	Cn1cc(NC(=O)c2ccc3ccc(N[C@@H]4CCCC(F)(F)[C@@H]4N)nn23)c(C(F)(F)F)n1 [Example 7, 2-{[(1R,2R)-2-amino-3,3-difluorocyclo-hexyl]amino}-N-[1-methyl-3-(trifluoromethyl)-1H-pyrazol-4-yl]pyrrolo[1,2-b]pyridazine-7-carboxamide trifluoroacetate]
7.47	Cn1cc(NC(=O)c2ccc3ccc(N[C@@H]4CCCC(F)(F)[C@@H]4N)nn23)c(C(F)F)n1 [Example 28, 2-{[(1R,2R)-2-amino-3,3-difluorocyclohexyl]amino}-N-[3-(difluoromethyl)-1-methyl-1H-pyrazol-4-yl]pyrrolo[1,2-b]pyridazine-7-carboxamide trifluoroacetate]
7.55	Cn1cc(NC(=O)c2ccc3ccc(N4CC5CCC4CN5)nn23)c(Cl)n1 (stereo not shown) [Example 26, N-(3-chloro-1-methyl-1H-pyrazol-4-yl)-2-(2,5-diazabicyclo[2.2.2]oct-2-yl)pyrrolo[1,2-b]pyridazine-7-carboxamide trifluoroacetate]
7.57	Cn1cc(NC(=O)c2ccc3ccc(N4CCNCC5(CC5)C4)nn23)c(C(F)(F)F)n1 [Example 9, 2-(5,8-diazaspiro[2.6]non-5-yl)-N-[1-methyl-3-(trifluoromethyl)-1H-pyrazol-4-yl]pyrrolo[1,2-b]pyridazine-7-carboxamide trifluoroacetate]
8.30	Cn1cc(NC(=O)c2ccc3ccc(N4C[C@@H]5CNC[C@H]4C5)nn23)c(C(F)F)n1 (single isomer, unassigned) [Example 125, 2-[(1S,5R)- or (1R,5S)-3,6-diazabicyclo[3.2.1]oct-6-yl]-N-[3-(difluoromethyl)-1-methyl-1H-pyrazol-4-yl]pyrrolo[1,2-b]pyridazine-7-carboxamide]
8.30	Cn1cc(NC(=O)c2ccc3ccc(N[C@@H]4CCCC[C@@H]4N)nn23)c(C(F)(F)F)n1 [Example 1, 2-(((1R,2S)-2-Aminocyclohexyl)amino)-N-(1-methyl-3-(trifluoromethyl)-1H-pyrazol-4-yl)pyrrolo[1,2-b]pyridazine-7-carboxamide]
8.70	Cn1cc(NC(=O)c2ccc3ccc(N4CCNCC4)nn23)c(C(F)F)n1 [Example 14, N-[3-(difluoromethyl)-1-methyl-1H-pyrazol-4-yl]-2-piperazin-1-ylpyrrolo[1,2-b]pyridazine-7-carboxamide trifluoroacetate]
8.70	Cn1cc(NC(=O)c2ccc3ccc(N4CCCNCC4)nn23)c(C(F)F)n1 [Example 15, 2-(1,4-diazepan-1-yl)-N-[3-(difluoromethyl)-1-methyl-1H-pyrazol-4-yl]pyrrolo[1,2-b]pyridazine-7-carboxamide trifluoroacetate]
8.70	Cn1cc(NC(=O)c2ccc3ccc(N[C@@H]4CCCC[C@@H]4N)nn23)c(Br)n1 [Example 22, 2-{[(1R,2S)-2-amino-cyclohexyl]amino}-N-(3-bromo-1-methyl-1H-pyrazol-4-yl)pyrrolo[1,2-b]pyridazine-7-carboxamide trifluoroacetate]
9.00	Cn1cc(NC(=O)c2ccc3ccc(N[C@@H]4CCCNC4)nn23)c(C(F)(F)F)n1 [Example 6, N-[1-methyl-3-(trifluoromethyl)-1H-pyrazol-4-yl]-2-[(3R)-piperidin-3-ylamino]pyrrolo[1,2-b]pyridazine-7-carboxamide trifluoroacetate]
9.00	Cn1cc(NC(=O)c2ccc3ccc(N[C@@H]4CCCC[C@@H]4N)nn23)c(C(F)F)n1 [Example 19, 2-{[(1R,2S)-2-aminocyclo-hexyl]amino}-N-[3-(difluoromethyl)-1-methyl-1H-pyrazol-4-yl]pyrrolo[1,2-b]pyridazine-7-carboxamide trifluoroacetate]
9.00	Cn1cc(NC(=O)c2ccc3ccc(N[C@@H]4CCCC[C@@H]4N)nn23)c(Cl)n1 [Example 25, 2-{[(1R,2S)-2-aminocyclohexyl]amino}-N-(3-chloro-1-methyl-1H-pyrazol-4-yl)pyrrolo[1,2-b]pyridazine-7-carboxamide trifluoroacetate]
9.05	Cn1cc(NC(=O)c2ccc3ccc(N[C@@H]4CCCNC4)nn23)c(C(F)F)n1 [Example 16, N-[3-(difluoromethyl)-1-methyl-1H-pyrazol-4-yl]-2-[(3R)-piperidin-3-ylamino]pyrrolo[1,2-b]pyridazine-7-carboxamide trifluoroacetate]
9.30	Cn1cc(NC(=O)c2ccc3ccc(N4CCC[C@@H](N)C4)nn23)c(C(F)(F)F)n1 [Example 12, 2-[(3R)-3-aminopiperidin-1-yl]-N-[1-methyl-3-(trifluoromethyl)-1H-pyrazol-4-yl]pyrrolo[1,2-b]pyridazine-7-carboxamide trifluoroacetate]
